Results as given in ChEMBL document CHEMBL5036349, “Development of potent dual PDK1/AurA kinase inhibitors for cancer therapy: Lead-optimization, structural insights, and ADME-Tox profile” (Eur J Med Chem, 2021).

Columns and labels:
[1] = tested on: HEK293; assay: Cytotoxicity against HEK293 cells at 10 uM measured after 24 to 48 hrs by Cell-titer glo assay relative to control; type: cell-based; conditions: human, hek293, 10 µM, time 24-48 hrs
[2] = target: T1, NAD-dependent protein deacetylase sirtuin-7 (Homo sapiens) (UniProt Q9NRC8); assay: Inhibition of human recombinant SIRT7 at 10 uM incubated for 20 mins followed by mixing and measure after 30 mins by Luminescence assay relative to control; conditions: time 50.0 min
T1 sequence (whole entry): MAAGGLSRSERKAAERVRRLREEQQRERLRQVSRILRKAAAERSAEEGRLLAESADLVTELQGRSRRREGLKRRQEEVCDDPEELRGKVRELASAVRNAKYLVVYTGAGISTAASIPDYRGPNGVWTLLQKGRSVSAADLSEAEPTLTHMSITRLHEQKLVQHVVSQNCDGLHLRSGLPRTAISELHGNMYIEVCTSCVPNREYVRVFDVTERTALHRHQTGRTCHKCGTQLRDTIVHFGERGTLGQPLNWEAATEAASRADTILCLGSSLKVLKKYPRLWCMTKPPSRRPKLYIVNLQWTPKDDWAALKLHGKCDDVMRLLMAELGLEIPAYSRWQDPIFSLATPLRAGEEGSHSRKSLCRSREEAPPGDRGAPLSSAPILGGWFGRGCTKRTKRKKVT

[3] = target: Aurora kinase B (Homo sapiens) (UniProt Q96GD4); assay: Inhibition of Aurora B kinase (unknown origin) at 10 uM in presence of ATP incubated for 30 min followed by addition of kinase glo-reagent measured after 20 mins by Luminescence based plate reader assay relative to control; conditions: time 50.0 min
Chain of Aurora kinase B (Homo sapiens) (Q96GD4 whole entry): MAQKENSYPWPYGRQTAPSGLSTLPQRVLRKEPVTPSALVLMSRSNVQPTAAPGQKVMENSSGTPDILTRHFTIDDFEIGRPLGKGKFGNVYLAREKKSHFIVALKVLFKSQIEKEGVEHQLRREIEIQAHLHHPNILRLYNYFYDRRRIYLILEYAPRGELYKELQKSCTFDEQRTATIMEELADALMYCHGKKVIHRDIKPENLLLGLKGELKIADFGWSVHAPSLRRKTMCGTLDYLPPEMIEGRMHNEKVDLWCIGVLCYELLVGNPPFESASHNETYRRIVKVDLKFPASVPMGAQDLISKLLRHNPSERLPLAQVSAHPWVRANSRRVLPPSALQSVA

[4] = target: Histone deacetylase 4 (Homo sapiens) (UniProt P56524); assay: Inhibition on human recombinant HDAC4 at 10 uM measured after 20 min by luminescence glo assay
Chain of Histone deacetylase 4 (Homo sapiens) (P56524 whole entry): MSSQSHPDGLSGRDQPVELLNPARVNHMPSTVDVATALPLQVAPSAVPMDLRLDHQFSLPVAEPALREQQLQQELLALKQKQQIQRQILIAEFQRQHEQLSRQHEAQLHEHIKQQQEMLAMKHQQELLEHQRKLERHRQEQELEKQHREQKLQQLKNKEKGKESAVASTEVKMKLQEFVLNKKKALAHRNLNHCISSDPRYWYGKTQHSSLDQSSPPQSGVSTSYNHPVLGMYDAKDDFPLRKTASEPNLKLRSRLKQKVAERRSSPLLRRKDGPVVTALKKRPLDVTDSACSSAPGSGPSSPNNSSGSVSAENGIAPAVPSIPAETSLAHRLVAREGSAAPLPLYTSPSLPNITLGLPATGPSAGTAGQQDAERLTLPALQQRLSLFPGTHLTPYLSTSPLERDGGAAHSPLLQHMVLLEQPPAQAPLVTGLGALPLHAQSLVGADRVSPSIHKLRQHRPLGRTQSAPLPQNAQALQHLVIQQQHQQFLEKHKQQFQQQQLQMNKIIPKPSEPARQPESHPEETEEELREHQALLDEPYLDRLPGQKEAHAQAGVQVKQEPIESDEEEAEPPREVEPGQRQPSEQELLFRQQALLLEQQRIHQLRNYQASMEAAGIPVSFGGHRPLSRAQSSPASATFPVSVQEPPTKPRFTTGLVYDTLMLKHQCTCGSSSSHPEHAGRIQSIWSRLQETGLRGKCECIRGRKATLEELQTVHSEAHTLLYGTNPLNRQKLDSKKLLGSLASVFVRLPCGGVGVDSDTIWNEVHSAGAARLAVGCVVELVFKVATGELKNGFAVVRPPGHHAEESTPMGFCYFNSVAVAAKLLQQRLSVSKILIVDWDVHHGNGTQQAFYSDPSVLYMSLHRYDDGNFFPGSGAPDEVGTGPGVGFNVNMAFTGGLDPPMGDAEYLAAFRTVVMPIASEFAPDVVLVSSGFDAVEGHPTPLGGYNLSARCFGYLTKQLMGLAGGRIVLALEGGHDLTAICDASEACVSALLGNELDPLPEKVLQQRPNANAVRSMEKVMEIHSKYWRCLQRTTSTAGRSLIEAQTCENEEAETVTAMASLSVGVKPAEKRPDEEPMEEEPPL

[5] = target: T2, Protein deacetylase HDAC6 (Homo sapiens) (UniProt Q9UBN7); assay: Inhibition on human recombinant HDAC6 at 10 uM measured after 20 min by luminescence glo assay
T2 sequence (whole entry): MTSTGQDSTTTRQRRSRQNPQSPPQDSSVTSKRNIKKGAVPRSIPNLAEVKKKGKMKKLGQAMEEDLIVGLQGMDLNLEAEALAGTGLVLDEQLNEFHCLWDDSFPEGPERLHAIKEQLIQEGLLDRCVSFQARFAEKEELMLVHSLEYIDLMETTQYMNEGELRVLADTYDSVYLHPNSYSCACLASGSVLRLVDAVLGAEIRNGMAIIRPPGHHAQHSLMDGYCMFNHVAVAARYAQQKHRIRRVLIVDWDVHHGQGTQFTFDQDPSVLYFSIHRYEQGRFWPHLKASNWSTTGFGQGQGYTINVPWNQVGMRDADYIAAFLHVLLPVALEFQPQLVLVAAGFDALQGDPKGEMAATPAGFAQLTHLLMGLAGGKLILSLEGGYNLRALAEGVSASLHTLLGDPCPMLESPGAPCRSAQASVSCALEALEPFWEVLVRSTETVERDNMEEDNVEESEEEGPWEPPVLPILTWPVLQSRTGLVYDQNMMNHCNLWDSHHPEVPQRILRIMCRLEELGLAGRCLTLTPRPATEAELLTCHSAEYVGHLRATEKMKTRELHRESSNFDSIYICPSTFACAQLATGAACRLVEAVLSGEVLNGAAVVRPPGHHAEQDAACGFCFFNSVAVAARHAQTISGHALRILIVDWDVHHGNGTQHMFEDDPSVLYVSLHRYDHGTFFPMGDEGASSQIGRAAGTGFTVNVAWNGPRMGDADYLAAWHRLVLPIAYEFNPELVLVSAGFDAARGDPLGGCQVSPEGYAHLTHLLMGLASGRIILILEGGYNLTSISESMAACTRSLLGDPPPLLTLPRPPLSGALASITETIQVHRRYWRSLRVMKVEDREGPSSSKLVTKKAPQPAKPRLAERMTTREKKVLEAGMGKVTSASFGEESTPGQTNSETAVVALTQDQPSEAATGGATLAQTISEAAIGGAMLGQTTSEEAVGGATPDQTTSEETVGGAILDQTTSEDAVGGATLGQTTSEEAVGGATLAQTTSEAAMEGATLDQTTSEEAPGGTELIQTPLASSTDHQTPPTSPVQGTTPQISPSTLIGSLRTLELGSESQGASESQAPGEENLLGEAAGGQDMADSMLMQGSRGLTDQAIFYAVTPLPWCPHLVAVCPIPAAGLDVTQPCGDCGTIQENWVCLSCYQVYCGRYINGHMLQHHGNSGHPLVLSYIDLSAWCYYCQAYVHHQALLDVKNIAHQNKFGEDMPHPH

[6] = target: T3, Histone deacetylase 8 (Homo sapiens) (UniProt Q9BY41); assay: Inhibition on human recombinant HDAC8 at 10 uM measured after 20 min by luminescence glo assay
T3 sequence (whole entry): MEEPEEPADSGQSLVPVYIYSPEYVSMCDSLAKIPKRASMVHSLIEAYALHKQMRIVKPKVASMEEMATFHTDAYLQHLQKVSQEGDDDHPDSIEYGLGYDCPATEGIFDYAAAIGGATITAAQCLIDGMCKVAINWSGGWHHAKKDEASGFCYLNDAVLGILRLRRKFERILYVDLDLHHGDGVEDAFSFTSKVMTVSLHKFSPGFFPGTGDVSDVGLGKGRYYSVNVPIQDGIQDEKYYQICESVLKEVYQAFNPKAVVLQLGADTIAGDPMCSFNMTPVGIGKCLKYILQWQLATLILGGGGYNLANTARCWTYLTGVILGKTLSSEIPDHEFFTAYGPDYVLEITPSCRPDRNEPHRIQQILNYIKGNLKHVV

[7] = target: Histone deacetylase 9 (Homo sapiens) (UniProt Q9UKV0); assay: Inhibition on human recombinant HDAC9 at 10 uM measured after 20 min by luminescence glo assay
Chain of Histone deacetylase 9 (Homo sapiens) (Q9UKV0 whole entry): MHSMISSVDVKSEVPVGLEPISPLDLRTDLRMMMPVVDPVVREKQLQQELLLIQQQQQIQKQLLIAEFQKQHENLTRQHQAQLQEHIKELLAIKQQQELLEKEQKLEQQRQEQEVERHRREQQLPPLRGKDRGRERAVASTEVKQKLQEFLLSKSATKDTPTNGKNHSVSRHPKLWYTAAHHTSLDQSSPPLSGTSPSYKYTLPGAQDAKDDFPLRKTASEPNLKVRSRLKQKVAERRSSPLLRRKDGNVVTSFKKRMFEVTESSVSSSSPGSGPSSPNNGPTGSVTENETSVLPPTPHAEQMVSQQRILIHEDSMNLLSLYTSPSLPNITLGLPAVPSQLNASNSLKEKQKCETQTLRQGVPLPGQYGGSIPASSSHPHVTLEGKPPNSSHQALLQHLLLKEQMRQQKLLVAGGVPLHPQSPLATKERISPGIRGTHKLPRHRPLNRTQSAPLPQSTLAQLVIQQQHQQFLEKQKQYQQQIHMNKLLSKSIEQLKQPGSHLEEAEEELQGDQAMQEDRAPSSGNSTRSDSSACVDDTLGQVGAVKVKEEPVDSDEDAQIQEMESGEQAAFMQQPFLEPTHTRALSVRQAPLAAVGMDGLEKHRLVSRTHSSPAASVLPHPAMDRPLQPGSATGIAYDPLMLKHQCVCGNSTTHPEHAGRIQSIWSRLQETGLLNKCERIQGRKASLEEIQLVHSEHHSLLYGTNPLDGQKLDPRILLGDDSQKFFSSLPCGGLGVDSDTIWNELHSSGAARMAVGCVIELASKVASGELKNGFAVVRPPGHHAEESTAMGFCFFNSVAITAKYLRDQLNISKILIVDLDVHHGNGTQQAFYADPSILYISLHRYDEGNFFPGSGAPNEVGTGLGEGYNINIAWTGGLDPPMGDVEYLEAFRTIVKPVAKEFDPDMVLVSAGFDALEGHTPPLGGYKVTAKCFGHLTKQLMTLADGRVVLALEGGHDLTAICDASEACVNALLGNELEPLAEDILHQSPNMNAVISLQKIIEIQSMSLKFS

[8] = target: {'v': 'CYP2C19', 'o': 'p', 'q': 'Inhibition of CYP2C19 (unknown origin)'} (Homo sapiens, UniProt P33261); assay: Inhibition of CYP2C19 (unknown origin) at 10 uM pre-incubated for 30 min followed by addition of NADPH and measured after 30 min by Luminescence based plate reader method relative to control; type: ADME; conditions: time 60 min
Chain of {'v': 'CYP2C19', 'o': 'p', 'q': 'Inhibition of CYP2C19 (unknown origin)'} (P33261 whole entry): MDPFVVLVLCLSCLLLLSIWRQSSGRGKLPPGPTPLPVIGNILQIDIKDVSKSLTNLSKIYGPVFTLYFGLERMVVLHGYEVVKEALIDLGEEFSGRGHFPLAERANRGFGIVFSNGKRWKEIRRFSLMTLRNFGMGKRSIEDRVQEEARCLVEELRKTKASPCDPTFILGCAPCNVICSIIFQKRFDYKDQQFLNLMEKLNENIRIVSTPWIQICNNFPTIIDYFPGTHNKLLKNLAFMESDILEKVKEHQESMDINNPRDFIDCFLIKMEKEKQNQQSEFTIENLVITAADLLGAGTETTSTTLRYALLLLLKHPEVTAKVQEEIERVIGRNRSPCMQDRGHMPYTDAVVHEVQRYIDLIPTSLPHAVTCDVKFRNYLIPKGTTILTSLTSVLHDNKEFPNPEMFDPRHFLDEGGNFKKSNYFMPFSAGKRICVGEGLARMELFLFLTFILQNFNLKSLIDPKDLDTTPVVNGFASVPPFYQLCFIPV

[9] = target: {'v': 'CYP2D6', 'o': 'p', 'q': 'Inhibition of CYP2D6 (unknown origin)'} (Homo sapiens, UniProt P10635); assay: Inhibition of CYP2D6 (unknown origin) at 10 uM pre-incubated for 30 min followed by addition of NADPH and measured after 30 min by Luminescence based plate reader method relative to control; type: ADME; conditions: time 60 min
Chain of {'v': 'CYP2D6', 'o': 'p', 'q': 'Inhibition of CYP2D6 (unknown origin)'} (P10635 whole entry): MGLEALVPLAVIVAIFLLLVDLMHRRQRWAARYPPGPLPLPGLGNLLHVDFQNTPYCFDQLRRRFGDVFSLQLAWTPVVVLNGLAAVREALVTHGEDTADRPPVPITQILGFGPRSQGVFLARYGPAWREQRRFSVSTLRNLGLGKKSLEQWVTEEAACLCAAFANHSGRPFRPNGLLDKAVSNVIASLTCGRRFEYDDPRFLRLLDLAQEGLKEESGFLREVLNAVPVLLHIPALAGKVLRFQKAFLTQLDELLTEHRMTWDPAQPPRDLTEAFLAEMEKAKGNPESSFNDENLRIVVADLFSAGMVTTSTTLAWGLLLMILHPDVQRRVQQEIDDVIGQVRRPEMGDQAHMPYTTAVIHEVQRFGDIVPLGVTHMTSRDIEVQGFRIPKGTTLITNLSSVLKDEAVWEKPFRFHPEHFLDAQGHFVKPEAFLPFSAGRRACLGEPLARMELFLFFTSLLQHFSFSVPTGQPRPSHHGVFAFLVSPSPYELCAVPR

[10] = target: {'v': 'CYP3A4', 'o': 'p', 'q': 'Inhibition of CYP3A4 (unknown origin)'} (Homo sapiens, UniProt P08684); assay: Inhibition of CYP3A4 (unknown origin) at 10 uM pre-incubated for 30 min followed by addition of NADPH and measured after 30 min by Luminescence based plate reader method relative to control; type: ADME; conditions: time 60 min
Chain of {'v': 'CYP3A4', 'o': 'p', 'q': 'Inhibition of CYP3A4 (unknown origin)'} (P08684 whole entry): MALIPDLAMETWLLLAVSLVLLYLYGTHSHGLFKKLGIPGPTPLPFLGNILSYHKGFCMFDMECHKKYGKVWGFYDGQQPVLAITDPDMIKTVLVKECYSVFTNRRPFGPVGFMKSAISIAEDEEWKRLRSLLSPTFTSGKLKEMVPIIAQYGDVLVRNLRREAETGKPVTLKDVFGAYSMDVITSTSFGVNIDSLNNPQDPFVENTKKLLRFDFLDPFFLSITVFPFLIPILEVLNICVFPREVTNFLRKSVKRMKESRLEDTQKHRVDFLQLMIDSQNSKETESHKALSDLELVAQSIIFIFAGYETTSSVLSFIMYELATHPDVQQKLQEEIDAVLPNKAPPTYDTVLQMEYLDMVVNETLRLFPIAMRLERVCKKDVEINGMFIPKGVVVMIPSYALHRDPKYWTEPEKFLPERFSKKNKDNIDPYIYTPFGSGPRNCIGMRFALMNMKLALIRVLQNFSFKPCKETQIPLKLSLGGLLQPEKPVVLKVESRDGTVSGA

SMILES	Activity [1]	inhibition [2]	inhibition [3]	inhibition [4]	inhibition [5]	inhibition [6]	inhibition [7]	inhibition at 0.5 h, 10 µM [8]	inhibition at 0.5 h, 10 µM [9]	inhibition at 0.5 h, 10 µM [10]
O=C1Nc2ccc(NC(=O)[C@H](NC(=O)c3cccn(Cc4ccc(F)c(F)c4)c3=O)c3ccccc3)cc2/C1=C/c1cnc[nH]1 (stereo in doubt)	< 25%	< 30%	< 20%	< 30%	< 30%	< 30%	< 30%	–	–	–
O=C(CCNC(=O)c1cccn(Cc2ccc(F)c(F)c2)c1=O)Nc1ccc2c(c1)/C(=C/c1cnc[nH]1)C(=O)N2	< 25%	< 30%	< 20%	< 30%	< 30%	< 30%	< 30%	> 90%	> 90%	> 90%
Cc1c(Br)cc(C(=O)N[C@@H](C(=O)Nc2ccc3c(c2)/C(=C/c2cnc[nH]2)C(=O)N3)c2ccccc2)c(=O)n1Cc1ccc(F)c(F)c1	< 25%	< 30%	< 20%	< 30%	< 30%	< 30%	< 30%	< 45%	< 45%	< 45%
Cc1ccc(C(=O)NCC(=O)Nc2ccc3c(c2)/C(=C/c2cnc[nH]2)C(=O)N3)c(=O)n1Cc1ccc(F)c(F)c1	< 25%	< 30%	< 20%	< 30%	< 30%	< 30%	< 30%	> 90%	> 90%	> 90%
